Experimental data as given in US5098923A, “Aromatase inhibiting 4(5)-imidazoles” (Farmos-Yhtyma Oy, priority 1987, dated 1992).
Like-named read-outs stand apart in the source and are kept apart here.

Tests used:
human aromatase = target: T1, human aromatase (Homo sapiens, UniProt P11511); experiment: In vitro inhibition of human placental aromatase (3H2O release from 1,2[3H]-androstene-3,17-dione); format: biochemical; details: for IC10: 40 min, read-out: AROMATASE IC-10; for IC90: read-out: AROMATASE IC-90
T1 construct: The enzyme preparation was used without further purification; from tissue; host or cells: human placenta, microsomal fraction (100000×g precipitate)
T1 sequence (P11511 1-503): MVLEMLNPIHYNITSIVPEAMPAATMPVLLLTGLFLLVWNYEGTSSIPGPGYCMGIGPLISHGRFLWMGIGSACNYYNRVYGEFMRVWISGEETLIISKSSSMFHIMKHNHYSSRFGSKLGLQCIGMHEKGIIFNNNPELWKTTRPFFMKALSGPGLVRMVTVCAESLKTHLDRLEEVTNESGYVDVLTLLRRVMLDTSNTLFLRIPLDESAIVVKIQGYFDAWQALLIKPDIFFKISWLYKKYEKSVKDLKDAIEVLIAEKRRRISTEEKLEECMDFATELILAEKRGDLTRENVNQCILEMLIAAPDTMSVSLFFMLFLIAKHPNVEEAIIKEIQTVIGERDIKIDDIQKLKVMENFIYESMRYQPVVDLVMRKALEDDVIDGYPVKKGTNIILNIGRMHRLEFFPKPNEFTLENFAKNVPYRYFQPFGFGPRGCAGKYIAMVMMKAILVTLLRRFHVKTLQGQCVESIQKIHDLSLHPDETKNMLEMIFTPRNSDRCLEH
Experimental: Human aromatase enzyme was used. The enzyme was prepared from human placenta, which is rich in the enzyme. Microsomal fraction (100000×g precipitate) was prepared by centrifugation. The enzyme preparation was used without further purification. Test compounds listed in Table 1 were added with 100000 dpm of 1,2[^3 H]-androstene-3,17-dione and NADPH generating system. The concentrations of the test compounds were 0,001; 0,01; 0,1 and 1,0 mM. The incubation was carried out at 37° C. for 40 min. Aromatization of 1,2[^3 H]-androstene-3,17-dione results in the production of ^3 H2 O. The tritiated water and the tritiated substrate are easily separated by a Sep-Pak® minicolumn, which absorbs the steroid but allows free water elution. Radioactivity was counted by a liquid scintillation counter. Aromatase inhibition was evaluated by comparing the ^3 H2 O-radioactivity of inhibitor treated samples to controls containing no inhibitor. IC-10, IC-50 and IC-90 values were calculated as concentrations which inhibited the enzyme activity 10%, 50% and 90%, respectively.

desmolase = experiment: Cholesterol side-chain cleavage (desmolase, P450 scc) inhibition; details: read-out: DESMOLASE IC-50; Table 2; 30 min at 37° C.; human placenta or bovine adrenals as enzyme source, table title says human
α2 = details: described in EP-194984; cited from earlier work

Row | Compound | IC50 (human aromatase; read-out: AROMATASE IC-50) | IC10 (human aromatase) | IC90 (human aromatase) | further results
1 | COc1cccc(C(CCc2cncn2Cc2ccccc2)c2cccc(OC)c2)c1 [Compound 15, 1-benzyl-5-[3,3-bis(3-methoxyphenyl)propyl]-1H-imidazole] | 4 µM |  |  | 
2 | Cc1ccccc1C(O)(CCc1c[nH]cn1)c1ccccc1C [Compound 6, 4-[3,3-bis(2-methylphenyl)-3-hydroxpropyl]-1H-imidazole] |  | 15 µM | > 1000 µM | IC50 (human aromatase): 300 µM
3 | c1ccc(CCC(CCc2cncn2Cc2ccccc2)c2ccccc2)cc1 (centres unmarked) [Compound 21, 1-benzyl-5-(3,5-diphenylpentyl)-1H-imidazole] | 17 µM |  |  | 
4 | COc1cccc(C(=CCc2cncn2Cc2ccccc2)c2cccc(OC)c2)c1 [Compound 16] |  |  |  | IC50 (human aromatase): 14 µM
5 | c1ccc(Cn2cncc2CCC(c2ccccc2)c2ccccc2)cc1 [Compound 10, 1-benzyl-5-(3,3-diphenylpropyl)-1H-imidazole] | 4 µM | ~0.6 µM | 100 µM | 
6 | OC(CCc1c[nH]cn1)(c1ccccc1)c1ccccc1 [Compound 3, 4-(3,3-diphenyl-3-hydroxypropyl)-1H-imidazole] | 70 µM | 4 µM | 1000 µM | 
7 | Cc1cccc(C(=CCc2c[nH]cn2)c2cccc(C)c2)c1 [Compound 12] |  | 1 µM | 1000 µM | IC50 (human aromatase): 62 µM
8 | Cc1cccc(C(CCc2c[nH]cn2)c2cccc(C)c2C)c1C [Compound 14, 4-[3,3-bis(2,3-dimethylphenyl)propyl]-1H-imidazole] | 44 µM |  |  | 
9 | COc1ccc(C(CCc2c[nH]cn2)c2ccc(OC)cc2)cc1 [Compound 22, 4-[3,3-bis(4-methoxyphenyl)propyl]-1H-imidazole] |  |  |  | IC50 (desmolase): 26 µM
10 | OC(CCc1c[nH]cn1)(c1ccc(Cl)cc1)c1ccc(Cl)cc1 [Compound 2, 4-[3,3-bis(4-chlorophenyl)-3-hydroxypropyl]-1H-imidazole] | 60 µM | 4 µM | 1000 µM | 
11 | C(Cc1c[nH]cn1)=C(c1ccccc1)c1ccccc1 [Compound 4] |  | < 1 µM | 100 µM | IC50 (human aromatase): 6 µM
12 | Cc1cccc(C)c1CCC(O)(CCc1c[nH]cn1)CCc1c(C)cccc1C [Compound 1, 4-[5-(2,6-dimethylphenyl)-3-hydroxy-3-(2,6-dimethylphenylethyl)pentyl]-1H-imidazole] | 1000 µM | 20 µM | > 1000 µM | 
13 | Fc1cccc(C(CCc2c[nH]cn2)c2cccc(F)c2)c1 [Compound 19, 4-[3,3-bis(3-fluorophenyl)propyl]-1H-imidazole] |  |  |  | IC50 (desmolase): 20 µM
14 | Cc1ccc(C(CCc2c[nH]cn2)c2ccccc2)cc1 (centres unmarked) [Compound 24, 4-[3-(4-methylphenyl)-3-phenylpropyl]-1H-imidazole] |  |  |  | IC50 (desmolase): 50 µM
15 | C(=CC(c1ccccc1)c1ccccc1)c1cncn1Cc1ccccc1 [Compound 28, 1-benzyl-5-(3,3-diphenylpropen-1-yl)-1H-imidazole] | 14 µM |  |  | 
16 | Cc1ccccc1C(=CCc1c[nH]cn1)c1ccccc1C [Compound 8] |  | 1.5 µM | > 1000 µM | IC50 (human aromatase): 80 µM
17 | Fc1ccc(C(CCc2c[nH]cn2)c2ccccc2)cc1 (centres unmarked) [Compound 26, 4-[3-(4-fluorophenyl)-3-phenylpropyl]-1H-imidazole] |  |  |  | IC50 (desmolase): 440 µM
18 | C(Cc1cncn1Cc1ccccc1)=C(c1ccccc1)c1ccccc1 [Compound 20] |  |  |  | IC50 (human aromatase): 50 µM
19 | Fc1ccc(C(CCc2c[nH]cn2)c2ccc(F)cc2)cc1 [Compound 27, 4-[3,3-bis(4-fluorophenyl)propyl]-1H-imidazole] |  |  |  | IC50 (desmolase): 30 µM
20 | Cc1cccc(C(CCc2c[nH]cn2)c2cccc(C)c2)c1 [Compound 11, 4-[3,3-bis(3-methylphenyl)propyl]-1H-imidazole] |  |  |  | IC50 (desmolase): 29 µM
21 | Cc1ccc(C(CCc2c[nH]cn2)c2ccc(C)cc2)cc1 [Compound 18, 4-[3,3-bis(4-methylphenyl)propyl]-1H-imidazole] |  |  |  | IC50 (desmolase): 48 µM
22 | c1ccc(C(Cc2c[nH]cn2)c2ccccc2)cc1 [4-(2,2-diphenylethyl)-1H-imidazole] |  |  |  | α2-blocking properties (α2): selective α2 -blocking properties
23 | Clc1ccc(C(=CCc2c[nH]cn2)c2ccc(Cl)cc2)cc1 [Compound 7] |  | 2 µM | 600 µM | IC50 (human aromatase): 35 µM
24 | Cc1cc(C)cc(C(CCc2c[nH]cn2)c2cc(C)cc(C)c2)c1 [Compound 17, 4-[3,3-bis(3,5-dimethylphenyl)propyl]-1H-imidazole] | 130 µM |  |  | 

Further lines, with some results ahead:

Row | IC50 (human aromatase; read-out: AROMATASE IC-50) | IC10 (human aromatase) | IC90 (human aromatase) | Compound | further results
25 | 8.6 µM |  |  | COc1ccccc1C(CCc1c[nH]cn1)c1ccccc1OC [Compound 25, 4-[3,3-bis(2-methoxyphenyl)propyl]-1H-imidazole] | 
26 | 3 µM |  |  | COc1cccc(C(CCc2c[nH]cn2)c2cccc(OC)c2)c1 [Compound 13, 4-[3,3-bis(3-methoxyphenyl)propyl]-1H-imidazole] | 
